From patent US20230346765A1, “METHODS OF TREATING XANTHINE OXIDASE-RELATED DISEASES WITH NIFLUMIC ACID AND DERIVATIVES THEREOF” (Baylor College of Medicine, priority 2020, published 2023)
Entries after “also recorded” stand apart in the source; their conditions may differ.

Columns and labels:
[1] = tested on: allantoxanamide-treated mice; experiment: Serum uric acid in acute hyperuricemia mouse model, allantoxanamide-treated (Example 4); format: in vivo, C57BL/6 mice; conditions: 50 mg/kg oral gavage once
Protocol: Adult C57BL/6 mice (15-25 g, 6-8 weeks old) were injected intraperitoneally (i.p.) with allantoxanamide at 100 mg/kg in 0.5% sodium carboxymethyl cellulose (CMC-Na) in a volume of 0.1 ml/10 g mouse body weight, to increase the serum uric acid level. Then the mice received a test compound at a concentration of 50 mg/kg in 1.0% polyethylene glycol 400 (PEG-400 in a volume of 0.1 ml/10 g mouse body weight), via oral gavage. Positive control mice received allopurinol at the same concentration as the test compound after i.p. injection of allantoxanamide. The negative control mice received PEG400 only after i.p. injection of allantoxanamide. Blood samples were collected through facial vein at 3 hours and 23 hours after the oral gavage (one time treatment). The blood was allowed to clot for 1 hour at room temperature and then centrifuged at 2350×g for 4 minutes to obtain serum. The serum was kept on ice and assayed immediately. Serum uric acid was determined using the phosphotungstate method, as known to those of skill in the art.
Allopurinol was used as a positive control. Allantoxanamide is a potent uricase inhibitor. […] Animal numbers used in this experiments [Negative control (baseline)=11; allantoxanamide=10, allopurinol (positive control)=4; niflumic acid=6; NFA-impurity E=6; talniflumate=6 and ethylniflutnate=6].

[2] = target: T1, Xanthine oxidase from bovine milk (Bos taurus, UniProt P80457); experiment: XO inhibition assay, cell-free, spectrophotometric monitoring of uric acid formation at 295 nm; format: biochemical; conditions: for type of inhibition / Ki: Lineweaver-Burk plot; for Ki: read-out: inhibitor constant (Ki); for inhibition of XO compared among 25 compounds and with allopurinol: each compound at 20 μM; for Vmax of XO: in the presence of different concentrations of the inhibitor; for initial rate of uric acid formation with longer pre-incubation times with XO: pre-incubated with XO for varying times, then xanthine added
T1 construct: Xanthine oxidase from bovine milk; purchased Sigma Chemical Co. (St. Louis, MO); host or cells: bovine milk
T1 sequence (P80457 whole entry): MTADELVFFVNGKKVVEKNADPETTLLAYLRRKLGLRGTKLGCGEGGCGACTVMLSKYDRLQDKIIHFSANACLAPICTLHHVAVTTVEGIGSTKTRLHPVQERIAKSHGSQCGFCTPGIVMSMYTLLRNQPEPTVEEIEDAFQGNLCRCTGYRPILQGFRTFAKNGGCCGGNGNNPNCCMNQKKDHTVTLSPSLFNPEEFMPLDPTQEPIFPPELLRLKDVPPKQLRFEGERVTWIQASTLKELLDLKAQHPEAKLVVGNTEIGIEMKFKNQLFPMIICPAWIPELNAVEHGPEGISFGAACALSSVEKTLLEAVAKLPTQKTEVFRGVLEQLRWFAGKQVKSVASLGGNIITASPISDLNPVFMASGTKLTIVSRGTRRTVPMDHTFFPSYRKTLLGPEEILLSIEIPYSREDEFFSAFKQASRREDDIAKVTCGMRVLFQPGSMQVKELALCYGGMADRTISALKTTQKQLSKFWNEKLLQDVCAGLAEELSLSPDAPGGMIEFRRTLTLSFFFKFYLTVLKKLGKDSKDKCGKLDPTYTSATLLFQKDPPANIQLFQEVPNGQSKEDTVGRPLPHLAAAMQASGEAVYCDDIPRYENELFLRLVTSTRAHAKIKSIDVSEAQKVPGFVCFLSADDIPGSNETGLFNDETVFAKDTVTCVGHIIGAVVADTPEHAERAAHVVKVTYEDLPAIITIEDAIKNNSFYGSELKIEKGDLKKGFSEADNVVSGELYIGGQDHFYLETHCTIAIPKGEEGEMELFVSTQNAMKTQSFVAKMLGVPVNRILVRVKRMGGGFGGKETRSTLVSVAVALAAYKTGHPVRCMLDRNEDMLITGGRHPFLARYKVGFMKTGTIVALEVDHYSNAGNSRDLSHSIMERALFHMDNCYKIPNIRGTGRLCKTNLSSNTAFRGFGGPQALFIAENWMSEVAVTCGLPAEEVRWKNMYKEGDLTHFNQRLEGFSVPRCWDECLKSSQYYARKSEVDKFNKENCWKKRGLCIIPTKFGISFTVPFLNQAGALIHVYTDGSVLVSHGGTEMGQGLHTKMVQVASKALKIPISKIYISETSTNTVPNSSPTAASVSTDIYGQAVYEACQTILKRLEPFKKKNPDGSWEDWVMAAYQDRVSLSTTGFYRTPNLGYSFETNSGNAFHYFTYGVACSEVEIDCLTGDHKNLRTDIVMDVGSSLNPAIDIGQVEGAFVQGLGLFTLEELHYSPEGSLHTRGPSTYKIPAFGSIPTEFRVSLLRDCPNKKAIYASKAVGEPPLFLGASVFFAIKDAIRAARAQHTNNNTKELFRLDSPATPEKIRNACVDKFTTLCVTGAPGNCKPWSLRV
From the text: Xanthine oxidase from bovine milk, xanthine, allopurinol, niflumic acid (NFA), ethyl niflumate, 2-(3-chloro-5-(trifluoromethyl)-2-pyridylthio)pyridine-3-carboxylic acid, 2-[3-(trifluoromethyl)phenoxy]nicotinic acid, clonixin, flunixin, flufenamic acid, indomethacin, naproxen, diclofenac, aspirin, ibuprofen, talniflumate, 6-phenylamino-nicotinic acid, 2-phenylamino-nicotinic acid, N-phenylanthranilic acid, mefenamic acid, tolfenamic acid, meclofenamic acid, floctafenic acid, and dimethyl sulfoxide (DMSO) were obtained from Sigma Chemical Co. (St. Louis, MO). Morniflumate was purchased from Toronto Research Chemicals, Inc. (North York, Canada).
The uric acid absorbance at 295 nm was followed and the intensity data were collected every 30 seconds for 10 minutes. The initial rate of uric acid formation was generated for the reaction and converted to XO activity as 100% without any inhibitor (negative control). The inhibitory effect of NFA on XO activity was calculated as compared with the negative control (DMSO).
The formation of uric acid during the oxidation of xanthine by XO in the absence of NFA was recorded (see FIG. 2A). Uric acid formation was monitored as the absorbance at 295 nm over a period of 0-10 minutes during the oxidation of xanthine. The corresponding data were recorded for the oxidation of xanthine by XO in the presence of 10 μM NFA over a period of 0-10 minutes (see FIG. 2B).
Enzyme kinetics analysis of NFA—The inhibition kinetics of NFA on XO was determined by using the Lineweaver-Burk plot (see FIG. 3A). […] The maximum velocity (Vmax) and Michaelis-Menten constant of XO were determined in the presence of different concentrations of NFA (see FIG. 3B).
Dose-dependent effects—The dose-dependent effects on XO inhibition by NFA, NFA impurity E (labeled as “Impurity E”), flunixin, clonixin, and flufenamic acid were studied (see FIG. 5). Varying concentrations (0-40 μM) of each compound were pre-incubated with 20 nM of XO. Allopurinol was used as a positive control and DMSO was used as a negative control.
The inhibition kinetics of NFA impurity E on XO was determined by using the Lineweaver-Burk plot (see FIG. 7A). […] The maximum velocity (Vmax) and Michaelis-Menten constant of XO was determined in the presence of different concentrations of NFA […] (see FIG. 7B).
XO (20 nM) was pre-incubated with NFA, allopurinol or a combination of NFA and allopurinol for 1 minute in a phosphate buffer ([…] pH 7.2), followed by the addition of […] xanthine to start the reaction. XO activity was analyzed by measuring the production of uric acid.

uricase −/− mice [3] = experiment: Serum uric acid in chronic hyperuricemia model, drug in solid chow diet; format: in vivo; conditions: for SUA: 250 mg/Kg food, 6-8 weeks; for SUA levels versus regular chow control: 250 mg/kg food, 6 to 8 weeks, p<0.001
Protocol: An analogous study was performed to investigate the effects on SUA in uricase −/− mice treated with solid chow diet formulated with NFA, DHNB, and allopurinol. NFA, DHNB or allopurinol was formulated into solid chow diet (250 mg/kg food, LabDiet® 5V5R, ½″ pellet; Irradiated) from the company (Test Diet, St. Louis, MO and Lab Supply, Inc). Allopurinol water was stopped for uricase−/− mice, while normal water was supplied during experiments. Uricase−/− mice (1-2 months age, male and female), were given special solid chow die including NFA, DHNB or allopurinol (250 mg/kg food). In separate mice, special solid chow diet containing allopurinol (250 mg/kg food) was given for a positive control and regular solid chow diet was given for a negative control. Blood samples were obtained and processed at 6 or 8 weeks after the treatment (see FIG. 11). Serum uric acid was determined using the tungsten phosphate method.

[4] = Stability of NFA during pre-incubation with XO (absorbance at 287 nm); format: physicochemical; conditions: incubated with XO for 0 to 47 hours
uricase −/− mice [5] = experiment: Serum uric acid in chronic hyperuricemia model, drug in drinking water; format: in vivo
Protocol: Serum uric acid (SUA) levels in uricase −/− mice were used to probe the effects of treatment with drinking water containing allopurinol, DHNB, and niflumic acid (NFA). Under the maintenance of allopurinol, adult uricase−/− mice show relatively low SUA (2-4 mg/dL). […] For the current experiments, the allopurinol water was stopped and normal water was supplied to uricase−/− mice for one week; and then uricase−/− mice were treated with DHNB (150 mg/L) or NFA (150 mg/L) in drinking water. Additionally, uricase−/− mice were given allopurinol (150 mg/L) as a positive control, while normal water was given for a negative control. All drug/waters were refreshed every week. Serum uric acid (SUA) levels of treated and control mice were determined 1-2 weeks, 4-6 weeks or 8-10 weeks after the treatment (see FIG. 10). Mouse blood (100˜200 μL) was taken via facial vein at the scheduled time point. The blood was allowed to clot for 1 hour at room temperature and then centrifuged at 2350 g for 4 minutes to obtain serum. The serum was kept on ice and assayed immediately by the tungsten phosphate method, as known to those of skill in the art.

[6] = tested on: allantoxanamide-treated mice; experiment: Hypouricemic effect in allantoxanamide induced hyperuricemic mice (Example 3); format: in vivo, C57BL/6 mice; conditions: 50 mg/kg oral gavage once; 1.5, 3 and 23 hours; p<0.05
Protocol: A hyperuricemia mouse model was used. Allantoxanamide, a potent uricase inhibitor, was used to induce hyperuricemia in mice in this study. Briefly, adult C57BL/6 mice (15-25 g. 6-8 weeks old) were injected intraperitoneally (i.p.) with allantoxanamide at 100 mg/kg or 200 mg/kg in 0.5% sodium carboxymethyl cellulose (CMC-Na) in a volume of 0.1 ml/10 g mouse body weight, to increase the serum uric acid level. The mice then received the test compound morniflumate at a concentration of 50 mg/kg in 1.0% polyethylene glycol 400 (PEG400 in a volume of 0.1 ml/10 g mouse body weight), via oral gavage. Positive control mice received allopurinol at the same concentration as test compound after i.p. injection of allantoxanamide. The negative control mice received PEG400 only after i.p, injection of allantoxanamide. Blood samples were collected through the facial vein at 1,5 hours, 3 hours, and 23 hours after the oral gavage. The blood was allowed to clot for 1 hour at room temperature and then centrifuged at 2350×g for 4 minutes to obtain serum. The serum was kept on ice and assayed immediately. Serum uric acid was determined using the phosphotungstate method, as known to those of skill in the art.

[7] = 150 mg/L in drinking water, 1-2 weeks
[8] = 150 mg/L in drinking water, 4-6 weeks
[9] = 150 mg/L in drinking water, 8-10 weeks

| SMILES | SUA levels versus allantoxanamide control ([1]; 3-hour time point) | SUA levels versus allantoxanamide control ([1]; 23-hour time point) | SUA (uricase −/− mice [3]) [mg/dL] | SUA levels versus regular chow control (uricase −/− mice [3]) | SUA (uricase −/− mice [5]; [7]) [mg/dL] | SUA (uricase −/− mice [5]; [8]) [mg/dL] | SUA (uricase −/− mice [5]; [9]) [mg/dL] | also measured |
| --- | --- | --- | --- | --- | --- | --- | --- | --- |
| O=C(O)c1ccc(Nc2cccc(C(F)(F)F)c2)nc1 [NFA impurity E] | significantly reduced SUA levels | significant effect |  |  |  |  |  | dose-dependent XO inhibition, rank ([2]; 0-40 μM pre-incubated with 20 nM XO): most potent amongst each of the compounds tested; type of inhibition [2]: mixed-type inhibition; Ki [2]: 30 nM; inhibition of XO compared among 25 compounds and with allopurinol [2]: most potent inhibitor amongst the compounds tested; also recorded: most effectively inhibit XO activity; Vmax of XO [2]: 0.044 µM/s; initial rate of uric acid formation with longer pre-incubation times with XO [2]: did not change |
| CCOC(=O)c1cccnc1Nc1cccc(C(F)(F)F)c1 [ethylniflumate, ethyl niflumate] | significantly reduced SUA levels |  |  |  |  |  |  |  |
| O=C(O)c1cccnc1Nc1cccc(C(F)(F)F)c1 [Niflumic acid, niflumic acid] | significantly reduced SUA levels | significant effect | 5.17 ± 1.28 | significantly reduced SUA levels | 5.47 ± 1.21 | 6.50 ± 0.64 | 3.89 ± 0.20 | IC50 ([2]; 20 nM XO, read-out: IC50, inhibitory effect on XO activity): 2750 nM; type of inhibition [2]: mixed-type inhibition; Ki [2]: 368 nM; relative enzymatic activity ([2]; at 20 μM): approximately 20%; XO relative activity ([2]; at lower concentrations (≤3.3 μM)): 45%; inhibition of XO compared among 25 compounds and with allopurinol ([2]; listed as NFA): inhibitory effect similar to that of allopurinol; also recorded: most effectively inhibit XO activity; Vmax of XO [2]: 0.04 µM/s; initial rate of uric acid formation with longer pre-incubation times with XO [2]: did not change; effect of pre-incubation with XO on stability [4]: no effect on the stability; SUA levels versus control mice (uricase −/− mice [5]; 150 mg/L in drinking water, all three time points, p<0.001): significantly reduced SUA levels |
| Cc1c(Nc2ncccc2C(=O)O)cccc1C(F)(F)F [flunixin] |  |  |  |  |  |  |  | inhibition of XO compared among 25 compounds and with allopurinol [2]: decreased its XO inhibitory activity |
| O=C1OC(OC(=O)c2cccnc2Nc2cccc(C(F)(F)F)c2)c2ccccc21 (centres unmarked) [talniflumate] | significantly reduced SUA levels | significant effect |  |  |  |  |  |  |
| Oc1ncnc2[nH]ncc12 [Allopurinol, allopurinol] | significantly reduced SUA levels | significantly reduced SUA levels | 4.33 ± 1.15 | significantly reduced SUA levels | 3.34 ± 0.87 | 3.45 ± 0.49 | 4.28 ± 0.80 | SUA under maintenance of allopurinol (uricase −/− mice [5]; adult uricase−/− mice, maintenance allopurinol water): 2 to 4 mg/dL; SUA levels versus allantoxanamide control [6]: significantly reduced SUA levels |
| O=Cc1cc(O)c(O)c([N+](=O)[O-])c1 [DHNB, 3,4-dihydroxy-5-nitrobenzaldehyde] |  |  | 5.91 ± 1.30 | significantly reduced SUA levels | 5.37 ± 1.06 | 5.73 ± 0.76 | 5.76 ± 0.81 |  |
| O=C(OCCN1CCOCC1)c1cccnc1Nc1cccc(C(F)(F)F)c1 [morniflumate, Morniflumate] |  |  |  |  |  |  |  | SUA levels versus allantoxanamide control [6]: significantly reduced SUA levels |
